From patent publication US20230271933A1, “HETEROCYCLIC IMMUNOMODULATOR” (Beijing Innocare Pharma Tech Co., Ltd., priority 2020, published 2023)

Assays:
[1] = In vivo pharmacokinetic experiment in rats; settings: male Sprague-Dawley rats, n = 3; for F: PO 5 mpk vs IV 1 mpk; for clearance / Vd / AUC(0-t) / Cmax: rat, plasma; for clearance / Vd: 1 mg/kg, IV 1 mpk; for Vd: read-out: VSS; for AUC(0-t) / Cmax: 5 mg/kg, PO 5 mpk
Protocol: The compound to be tested was dissolved in 5% DMA+20% Solutol+75% Saline vehicle to prepare a 0.5 mg/mL administration solution.
2 mL/kg of the administration solution was administered through the intravenous injection (IV) at a dose of 1 mg/kg to three fed male Sprague-Dawley rats, respectively. Blood samples were collected at 0.083, 0.25, 0.5, 1, 2, 4, 8 and 24 hours after administration. 10 mL/kg of the administration solution was administered by gavage (PO) at a dose of 5 mg/kg to other three fed male Sprague-Dawley rats, respectively. Blood samples were collected at 0.25, 0.5, 1, 2, 4, 8 and 24 hours after administration.
The concentration of the compound to be tested in plasma was obtained with the LC-MS/MS quantitative analysis with an API-4500 mass spectrometer, and the limit of quantitation (LOQ) for the plasma was 1 ng/mL.

[2] = system: IL-2; assay: Stimulation of IL-2 secretion in anti-CD3-stimulated hPBMC (ELISA); type: cell-based, human; settings: Homo sapiens, anti-CD3 antibody, 72 hours
Protocol: (§1) The immunomodulatory function of the compound of the present invention was evaluated by detecting its effect on the secretion amount of TNFα and IL-2 in cells from the human peripheral blood mononuclear cells (hPBMC) by the enzyme linked immunosorbent assay (ELISA) method.
(§2) The peripheral blood of healthy volunteers was collected by using EDTA anticoagulant tubes, and diluted with phosphate buffered saline (PBS) containing 2% fetal bovine serum (Gibco, Cat. No. 10099-141) in an equal volume ratio. 30 mL of the resulting diluted sample was transferred into a Sepmate-50 centrifuge tube (Stemcell, Cat. No. 86450) to which 15 mL of a density-gradient centrifugation liquid (Sigma, Cat. No. 10771) had been added in advance, and centrifuged at room temperature at 1200×g for 10 minutes. The liquid containing PBMC in the upper layer was transferred to a new 50-mL centrifuge tube, and centrifuged at room temperature at 300×g for 8 minutes. The supernatant was discarded, and the resulting PBMC was resuspended to 5×10^6/mL by using RPMI 1640 medium (Gibco, Cat. No. 72400-047). 80 μL of the resulting suspension was added to each well in a 96-well plate.
(§3) Each concentration was further diluted 50-fold with RPMI 1640 medium. 10 μL of each compound solution was added into the cells in the above 96-well plate. The 96-well plate was placed in an incubator, and the cells were cultured at 37° C. and 5% CO2 for 1 hour. 10 μL of LPS (Sigma, Cat. No. L-2880) with a concentration of 100 ng/mL was added, and the cells were continuously cultured in the incubator at 37° C. and 5% CO2 overnight. Supernatants were collected for the detection of TNFα.
The above-mentioned 96-well plate can also be placed in an incubator, and the cells were cultured at 37° C. and 5% CO2 for 1 hour. 10 μL of anti-CD3 antibody (Thermo Fisher, Cat. No. 14-0037-82) with a concentration of 500 ng/mL was added, and the cells were continuously cultured in the incubator at 37° C. and 5% CO2 for 72 hours. Supernatants were collected for the detection of IL-2.
(§4) TNFα and IL-2 were detected respectively according to each instruction of the ELISA kits (R&D, Cat. No. DY210 and DY202, respectively) to obtain the OD450 values for each well. The group containing 0.2% DMSO medium was used as 0% inhibition or stimulation. The XLfit software was used to plot the compound inhibition or stimulation curve and calculate the corresponding IC50 or EC50.

[3] = system: TNFα; assay: Inhibition of TNFα secretion in LPS-stimulated hPBMC (ELISA); type: cell-based; settings: Homo sapiens, overnight, read-out: IC50 (nM) for the inhibition of the TNFa secretion
Protocol: as §1, §2, §3, §4

| Structure (SMILES) | F [1] [%] | clearance [1] [mL/min/kg] | Vd [1] [L/kg] | AUC(0-t) [1] [ng·h/mL] | Cmax [1] [ng/mL] | EC50 [2] [nM] | IC50 [3] [nM] |
| --- | --- | --- | --- | --- | --- | --- | --- |
| C[C@H](c1ccc(COc2cccc3c2CN([C@H]2CCC(=O)NC2=O)C3=O)cc1)N1CCN(c2ccc(C#N)cc2F)CC1 [Compound 6, 4-(4-((R)-1-(4-(((2-((S)-2,6-dioxopiperidin-3-yl)-1-oxoisoindolin-4-yl)oxy)methyl)phenyl)ethyl)piperazin-1-yl)-3-fluorobenzonitrile] | 14 | 1 | 0.27 | 11800 | 1800 | 2.3 | 2.8 |
| C[C@H](c1ccc(COc2cccc3c2CN([C@H]2CCC(=O)NC2=O)C3=O)cc1)N1CCN(c2ccc(C#N)cn2)CC1 [Compound 16, 6-(4-((R)-1-(4-(((2-((S)-2,6-dioxopiperidin-3-yl)-1-oxoisoindolin-4-yl)oxy)methyl)phenyl)-ethyl)piperazin-1-yl)nicotinonitrile] | 27 | 5.2 | 0.56 | 4280 | 555 | 5.5 | 1.3 |
| C[C@H](c1ccc(COc2cccc3c2CN([C@H]2CCC(=O)NC2=O)C3=O)cc1)N1CCN(c2ncc(C#N)cc2F)CC1 [Compound 22, 6-(4-((R)-1-(4-(((2-((S)-2,6-dioxopiperidin-3-yl)-1-oxoisoindolin-4-yl)oxy)methyl)phenyl)-ethyl)piperazin-1-yl)-5-fluoronicotinonitrile] | 30 | 2.2 | 0.36 | 13000 | 1440 | 26 | 4.7 |
| C[C@H](c1ccc(COc2cccc3c2CN([C@H]2CCC(=O)NC2=O)C3=O)cc1)N1CCN(c2ccc(C#N)nc2)CC1 [Compound 21, 5-(4-((R)-1-(4-(((2-((S)-2,6-dioxopiperidin-3-yl)-1-oxoisoindolin-4-yl)oxy)methyl)phenyl)ethyl)piperazin-1-yl)-2-cyanopyridine] | 18 | 14 | 0.65 | 1010 | 318 | 3.8 | 0.5 |
